Reference: PubChem BioAssay AID743232 (The Scripps Research Institute Molecular Screening Center, 2013)
Activity calls are given as the source filed them. How the calls were made is not given here.

System: Ga16-expressing cells (no TAAR1), calcium fluorescence, counterscreen
Experiment: Ga16 cell calcium activation, concentration series – fluorescence, dose response, counter-screen for TAAR1 agonist project, late-stage follow-up (AID 743232)

CC(=C1C(=O)c2ccccc2C1=O)N1CCc2ccccc2C1
EC50: > 29.9 µM (inactive)

CC1(C)CCCN(C(=O)c2coc(=O)c(Br)c2)C1
EC50: > 29.9 µM (inactive)

NC(N)=Nc1cc2ccccc2c2ccccc12
EC50: > 29.9 µM (inactive)

Cc1[nH]c2ccccc2c1CN1CCc2ccccc2C1
EC50: > 29.9 µM (inactive)

O=C(Nc1ccncc1)Nc1ccc(F)cc1
EC50: > 29.9 µM (inactive)

CCOC(=O)C(NC(=O)CC)(N1CCc2ccccc2C1)C(F)(F)F (stereo unspecified)
EC50: > 29.9 µM (inactive)

O=C(CCN1CCC(c2ccccc2)C1)c1ccc2c(c1)OCCO2 (stereo unspecified)
EC50: > 29.9 µM (inactive)

O=C(CCN1CCc2ccccc2CC1)c1ccc2c(c1)OCCO2
EC50: > 29.9 µM (inactive)

O=C(Nc1cccc2ccccc12)N1CCc2ccccc2C1
EC50: > 29.9 µM (inactive)

COc1cc(C(=O)CCN2CCC(c3ccccc3)C2)cc(OC)c1OC (stereo unspecified)
EC50: > 29.9 µM (inactive)

OCCNc1nc(Nc2cccc(O)c2)nc2ccccc12
EC50: > 29.9 µM (inactive)

c1ccc(CCn2nnnc2C(c2cccs2)N2CCN(Cc3ccc4c(c3)OCO4)CC2)cc1 (stereo unspecified)
EC50: > 29.9 µM (inactive)

CC(=NCCc1ccccc1)C1CCOC1=O (stereo unspecified)
EC50: > 29.9 µM (inactive)

c1ccc2c3c([nH]c2c1)CCNC3
EC50: > 29.9 µM (inactive)

c1ccc2c(c1)CCN(c1nc3cc4c(cc3s1)OCO4)C2
EC50: > 29.9 µM (inactive)

Nc1nc(Nc2ccccc2)nc2ccccc12
EC50: > 29.9 µM (inactive)

OCCNc1nc(Nc2ccc(O)cc2)nc2ccccc12
EC50: > 29.9 µM (inactive)

c1ccc(CCN2CN(CCCN3CCOCC3)c3nc4ccccc4n3C2)cc1
EC50: > 29.9 µM (inactive)

O=C(CCCCl)N1CCc2[nH]c3ccccc3c2C1
EC50: > 29.9 µM (inactive)

NC(N)=NN=Cc1c(Cl)cccc1Cl
EC50: > 29.9 µM (inactive)

Nc1nc(Nc2cccc(F)c2)nc2ccccc12
EC50: > 29.9 µM (inactive)

O=C(Nc1cccnc1)Nc1cccc(F)c1
EC50: > 29.9 µM (inactive)

NCc1c(O)ccc2ccccc12
EC50: > 29.9 µM (inactive)

Cc1cc(C)n(C(CC(=O)N2CCc3ccccc3C2)C(=O)O)n1 (stereo unspecified)
EC50: > 29.9 µM (inactive)

O=c1[nH]cc(NCCc2ccccc2)c(=O)[nH]1
EC50: > 29.9 µM (inactive)

O=C(CCN1CCC(c2ccccc2)C1)c1cccs1 (stereo unspecified)
EC50: > 29.9 µM (inactive)

O=C(Nc1ccccc1)Nc1ccncc1
EC50: > 29.9 µM (inactive)

Cc1ccc(NC(=O)CCN2CCc3ccccc3C2)cc1
EC50: > 29.9 µM (inactive)

O=C(C(=O)N1CCc2ccccc2C1)c1cn(CC(=O)N2CCCCC2)c2ccccc12
EC50: > 29.9 µM (inactive)

CCOC(=O)C(NC(C)=O)(N1CCc2ccccc2C1)C(F)(F)F (stereo unspecified)
EC50: > 29.9 µM (inactive)

Cc1cc(N(C)C)nc(Nc2ccccc2)n1
EC50: > 29.9 µM (inactive)
